According to publication PMC12274840 (The Journal of Biological Chemistry, 2025):
≈ marks a conversion by molar mass, not a printed value. Where two headings read alike, the source gives them in different places.

Key:
[1] = tested on: E. coli KA797 cells carrying pUK21 with CTX-M-14 WT (Tat); assay: microbe, parasite or virus in culture; type: cell-based; details: Escherichia coli, antibiotic alone
[2] = tested on: E. coli KA797 cells carrying pUK21 with TEM-1 WT (Sec); assay: microbe, parasite or virus in culture; type: cell-based; details: Escherichia coli, antibiotic alone
BlaC WT = target: T1, BlaC WT (Mycobacterium tuberculosis, UniProt P9WKD3); type: biochemical; details: pH 6.4
T1 construct: correspond to residue numbers 41-307 of BlaC (Uniprot entry P9WKD3-1); His tag with TEV cleavage site (N); made in house; host or cells: E. coli BL21 (DE3) pLysS

CTX-M-14 Y105G = target: T2, CTX-M-14 Y105G (Escherichia coli, UniProt Q9L5C7, Y108G); type: biochemical
T2 construct: 29 to 291 of CTX-M-14 (Q9L5C7); His tag with TEV cleavage site (N); made in house; host or cells: E. coli BL21 (DE3) pLysS

TEM-1 Y105G = TEM-1 Y105G (Escherichia coli, UniProt P62593, Y103G); assay: Steady-state kinetics of substrate hydrolysis, TEM-1 Y105G; type: biochemical; details: phosphate buffer pH 6.4, 25 °C
[3] = tested on: E. coli KA797 cells carrying BlaC position 105 library; type: cell-based, Escherichia coli; details: ampicillin; for Fi AMP AVG: average of replicates
[4] = tested on: E. coli KA797 cells carrying KPC-2 position 105 library; type: cell-based; details: selection with labelled antibiotic
TEM-1 WT = TEM-1 WT (Escherichia coli, UniProt P62593)
[5] = read-out: KM^app, phosphate buffer pH 6.4, 25 °C

CC1(C)S[C@@H]2[C@H](NC(=O)[C@H](N)c3ccccc3)C(=O)N2[C@H]1C(=O)O [ampicillin]
MIC [1]: 1600 µg/mL (≈ 4.58 mM) | MIC [2]: 12800 µg/mL (≈ 36.6 mM) | kcat (BlaC WT): 14 ± 2 s⁻¹ | Km (BlaC WT; read-out: KM^app): 68 ± 3 µM | kcat (CTX-M-14 Y105G; phosphate buffer pH 6.4, 25 °C): 48 ± 2 s⁻¹ | Km (CTX-M-14 Y105G; [5]): 297 ± 10 µM | kcat (TEM-1 Y105G): 601 ± 9 s⁻¹ | Significance (Fi AMP AVG) ([3]; AA 105 Ala): + | Fi AMP AVG ([3]; AA 105 Ala): 0.883 | Fi AMP 1 ([3]; AA 105 Ala, replicate 1): 0.406 | Fi AMP 2 ([3]; AA 105 Ala, replicate 2): 1.100 | Fi AMP 3 ([3]; AA 105 Ala, replicate 3): 1.141 | Fi AMP AVG ([3]; AA 105 Arg): 0.475 | Fi AMP 1 ([3]; AA 105 Arg, replicate 1): 0.818 | Fi AMP 2 ([3]; AA 105 Arg, replicate 2): -0.366 | Fi AMP 3 ([3]; AA 105 Arg, replicate 3): 0.972 | Fi AMP AVG ([3]; AA 105 Asn): -0.118 | Fi AMP 1 ([3]; AA 105 Asn, replicate 1): -0.339 | Fi AMP 2 ([3]; AA 105 Asn, replicate 2): -0.227 | Fi AMP 3 ([3]; AA 105 Asn, replicate 3): 0.211 | Fi AMP AVG ([3]; AA 105 Asp): 0.229 | Fi AMP 1 ([3]; AA 105 Asp, replicate 1): 0.470 | Fi AMP 3 ([3]; AA 105 Asp, replicate 3): -0.012 | Significance (Fi AMP AVG) ([3]; AA 105 Cys): + | Fi AMP AVG ([3]; AA 105 Cys): 0.500 | Fi AMP 1 ([3]; AA 105 Cys, replicate 1): 0.488 | Fi AMP 2 ([3]; AA 105 Cys, replicate 2): 0.257 | Fi AMP 3 ([3]; AA 105 Cys, replicate 3): 0.755 | Fi AMP AVG ([3]; AA 105 Gln): 0.694 | Fi AMP 3 ([3]; AA 105 Gln, replicate 3): 0.694 | Fi AMP AVG ([3]; AA 105 Glu): 0.120 | Fi AMP 1 ([3]; AA 105 Glu, replicate 1): -0.486 | Fi AMP 2 ([3]; AA 105 Glu, replicate 2): 1.183 | Fi AMP 3 ([3]; AA 105 Glu, replicate 3): -0.337 | Fi AMP AVG ([3]; AA 105 Gly): 0.342 | Fi AMP 1 ([3]; AA 105 Gly, replicate 1): 0.540 | Fi AMP 2 ([3]; AA 105 Gly, replicate 2): -0.133 | Fi AMP 3 ([3]; AA 105 Gly, replicate 3): 0.619 | Significance (Fi AMP AVG) ([3]; AA 105 His): + | Fi AMP AVG ([3]; AA 105 His): 2.187 | Fi AMP 1 ([3]; AA 105 His, replicate 1): 2.095 | Fi AMP 2 ([3]; AA 105 His, replicate 2): 2.262 | Fi AMP 3 ([3]; AA 105 His, replicate 3): 2.205 | Fi AMP AVG ([3]; AA 105 Ile (WT)): 0.000 | Fi AMP 1 ([3]; AA 105 Ile (WT), replicate 1): 0.000 | Fi AMP 2 ([3]; AA 105 Ile (WT), replicate 2): 0.000 | Fi AMP 3 ([3]; AA 105 Ile (WT), replicate 3): 0.000 | Fi AMP AVG ([3]; AA 105 Leu): 0.259 | Fi AMP 1 ([3]; AA 105 Leu, replicate 1): 0.406 | Fi AMP 2 ([3]; AA 105 Leu, replicate 2): -0.033 | Fi AMP 3 ([3]; AA 105 Leu, replicate 3): 0.405 | Fi AMP AVG ([3]; AA 105 Lys): 0.741 | Fi AMP 1 ([3]; AA 105 Lys, replicate 1): 0.741 | Fi AMP AVG ([3]; AA 105 Met): 0.434 | Fi AMP 1 ([3]; AA 105 Met, replicate 1): 0.165 | Fi AMP 2 ([3]; AA 105 Met, replicate 2): 0.714 | Fi AMP 3 ([3]; AA 105 Met, replicate 3): 0.423 | Significance (Fi AMP AVG) ([3]; AA 105 Phe): + | Fi AMP AVG ([3]; AA 105 Phe): 3.116 | Fi AMP 1 ([3]; AA 105 Phe, replicate 1): 3.353 | Fi AMP 2 ([3]; AA 105 Phe, replicate 2): 2.935 | Fi AMP 3 ([3]; AA 105 Phe, replicate 3): 3.061 | Fi AMP AVG ([3]; AA 105 Pro): 0.423 | Fi AMP 1 ([3]; AA 105 Pro, replicate 1): 0.675 | Fi AMP 2 ([3]; AA 105 Pro, replicate 2): 0.012 | Fi AMP 3 ([3]; AA 105 Pro, replicate 3): 0.583 | Fi AMP AVG ([3]; AA 105 Ser): 0.267 | Fi AMP 1 ([3]; AA 105 Ser, replicate 1): 1.268 | Fi AMP 2 ([3]; AA 105 Ser, replicate 2): -0.404 | Fi AMP 3 ([3]; AA 105 Ser, replicate 3): -0.062 | Fi AMP AVG ([3]; AA 105 Thr): 0.222 | Fi AMP 1 ([3]; AA 105 Thr, replicate 1): -0.283 | Fi AMP 2 ([3]; AA 105 Thr, replicate 2): 0.921 | Fi AMP 3 ([3]; AA 105 Thr, replicate 3): 0.029 | Significance (Fi AMP AVG) ([3]; AA 105 Trp): + | Fi AMP AVG ([3]; AA 105 Trp): 3.126 | Fi AMP 1 ([3]; AA 105 Trp, replicate 1): 3.329 | Fi AMP 2 ([3]; AA 105 Trp, replicate 2): 2.872 | Fi AMP 3 ([3]; AA 105 Trp, replicate 3): 3.175 | Significance (Fi AMP AVG) ([3]; AA 105 Tyr): + | Fi AMP AVG ([3]; AA 105 Tyr): 3.396 | Fi AMP 1 ([3]; AA 105 Tyr, replicate 1): 3.695 | Fi AMP 2 ([3]; AA 105 Tyr, replicate 2): 3.143 | Fi AMP 3 ([3]; AA 105 Tyr, replicate 3): 3.349 | Fi AMP AVG ([3]; AA 105 Val): -0.310 | Fi AMP 1 ([3]; AA 105 Val, replicate 1): -0.429 | Fi AMP 3 ([3]; AA 105 Val, replicate 3): -0.191 | WT abs Fi 1 ([3]; WT (Ile 105) absolute fitness, replicate 1): -1.907 | WT abs Fi 2 ([3]; WT (Ile 105) absolute fitness, replicate 2): -1.350 | WT abs Fi 3 ([3]; WT (Ile 105) absolute fitness, replicate 3): -1.353 | Fi AVG (average fitness of replicates) ([4]; KPC-2 AA 105 = Ala): -2.717 | Fi AVG (average fitness of replicates) ([4]; KPC-2 AA 105 = Arg): -1.311 | Significance of average fitness ([4]; KPC-2 AA 105 = Arg): - | Fi AVG (average fitness of replicates) ([4]; KPC-2 AA 105 = Asn): -2.270 | Significance of average fitness ([4]; KPC-2 AA 105 = Asn): - | Fi AVG (average fitness of replicates) ([4]; KPC-2 AA 105 = Cys): -1.421 | Significance of average fitness ([4]; KPC-2 AA 105 = Cys): - | Fi AVG (average fitness of replicates) ([4]; KPC-2 AA 105 = Gln): -2.210 | Significance of average fitness ([4]; KPC-2 AA 105 = Gln): - | Fi AVG (average fitness of replicates) ([4]; KPC-2 AA 105 = Glu): -2.582 | Significance of average fitness ([4]; KPC-2 AA 105 = Glu): - | Fi AVG (average fitness of replicates) ([4]; KPC-2 AA 105 = Gly): -1.606 | Significance of average fitness ([4]; KPC-2 AA 105 = Gly): - | Fi AVG (average fitness of replicates) ([4]; KPC-2 AA 105 = His): -0.658 | Fi AVG (average fitness of replicates) ([4]; KPC-2 AA 105 = Leu): -1.411 | Significance of average fitness ([4]; KPC-2 AA 105 = Leu): - | Fi AVG (average fitness of replicates) ([4]; KPC-2 AA 105 = Met): -2.639 | Significance of average fitness ([4]; KPC-2 AA 105 = Met): - | Fi AVG (average fitness of replicates) ([4]; KPC-2 AA 105 = Phe): -0.181 | Fi AVG (average fitness of replicates) ([4]; KPC-2 AA 105 = Pro): -1.601 | Significance of average fitness ([4]; KPC-2 AA 105 = Pro): - | Fi AVG (average fitness of replicates) ([4]; KPC-2 AA 105 = Ser): -2.329 | Significance of average fitness ([4]; KPC-2 AA 105 = Ser): - | Fi AVG (average fitness of replicates) ([4]; KPC-2 AA 105 = Thr): -2.338 | Fi AVG (average fitness of replicates) ([4]; KPC-2 AA 105 = Trp (WT, reference)): 0.000 | Fi AVG (average fitness of replicates) ([4]; KPC-2 AA 105 = Tyr): -1.608 | Significance of average fitness ([4]; KPC-2 AA 105 = Tyr): - | Fi AVG (average fitness of replicates) ([4]; KPC-2 AA 105 = Val): -2.672 | Significance of average fitness ([4]; KPC-2 AA 105 = Val): - | WT abs Fi 1 (absolute fitness) ([4]; KPC-2 WT (Trp 105), replicate 1): 0.183 | WT abs Fi 2 (absolute fitness) ([4]; KPC-2 WT (Trp 105), replicate 2): 0.061 | WT abs Fi 3 (absolute fitness) ([4]; KPC-2 WT (Trp 105), replicate 3): 0.422 | kcat (TEM-1 WT; phosphate buffer pH 6.4, 25 °C): 2359 ± 16 s⁻¹ | Km (TEM-1 WT; [5]): 72 ± 1 µM
